{
  "source": "ChEMBL document CHEMBL1201862",
  "about": "“PubChem BioAssay data set” (2004)",
  "key": {"[1]": {"target": "Induced myeloid leukemia cell differentiation protein Mcl-1 (Homo sapiens, UniProt Q07820)", "sequence (Q07820 whole entry)": "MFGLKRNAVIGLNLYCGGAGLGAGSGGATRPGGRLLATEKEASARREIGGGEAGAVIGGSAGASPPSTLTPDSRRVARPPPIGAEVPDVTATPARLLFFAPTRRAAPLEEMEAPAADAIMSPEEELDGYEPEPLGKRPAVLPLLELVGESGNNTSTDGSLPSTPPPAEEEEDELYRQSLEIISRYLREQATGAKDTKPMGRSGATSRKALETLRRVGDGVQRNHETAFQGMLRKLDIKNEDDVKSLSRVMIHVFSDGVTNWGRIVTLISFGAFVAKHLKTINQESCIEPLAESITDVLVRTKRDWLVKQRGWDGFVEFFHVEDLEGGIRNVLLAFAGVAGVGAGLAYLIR", "assay": "MCL1-BIM BH3 interaction inhibitors, dose response, biochemical, fluorescence polarization, BIM-BH3 peptide, 1536-well (AID 2217)"}, "Bcl-2-like protein 1": {"target": "Bcl-2-like protein 1 (Homo sapiens, UniProt Q07817)", "sequence (Q07817 whole entry)": "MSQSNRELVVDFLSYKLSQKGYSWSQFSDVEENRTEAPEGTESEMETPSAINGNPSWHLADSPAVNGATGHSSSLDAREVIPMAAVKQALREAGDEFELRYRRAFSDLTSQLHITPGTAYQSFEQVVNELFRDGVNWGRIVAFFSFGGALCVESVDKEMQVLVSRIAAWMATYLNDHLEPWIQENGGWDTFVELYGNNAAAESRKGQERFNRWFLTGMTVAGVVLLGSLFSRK", "assay": "BCL-XL inhibitors, dose response, selectivity assay for MCL1 inhibitor project, biochemical, fluorescence polarization, 1536-well (AID 2218)"}, "[2]": {"target": "T1, Endoribonuclease toxin MazF (Escherichia coli K-12, UniProt P0AE70)", "T1 sequence (P0AE70 whole entry)": "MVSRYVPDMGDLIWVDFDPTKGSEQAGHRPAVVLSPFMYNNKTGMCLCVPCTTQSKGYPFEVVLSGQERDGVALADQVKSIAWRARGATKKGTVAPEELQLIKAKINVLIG", "assay": "MazF toxin RNase activators, dose response, biochemical, fluorescence, single-stranded RNA substrate, uHTS hits (AID 588481)", "format": "functional"}, "[3]": {"target": "T1, Endoribonuclease toxin MazF", "assay": "fluorescent RNA oligo signal without MazF, dose response, counter-screen for MazEF activator project, biochemical, fluorescence, single-stranded RNase substrate (AID 588502)", "format": "functional"}, "[4]": {"target": "Peroxisome proliferator-activated receptor gamma/Nuclear receptor corepressor 2 (Homo sapiens, UniProt P37231+Q9Y618)", "sequence (P37231 whole entry)": "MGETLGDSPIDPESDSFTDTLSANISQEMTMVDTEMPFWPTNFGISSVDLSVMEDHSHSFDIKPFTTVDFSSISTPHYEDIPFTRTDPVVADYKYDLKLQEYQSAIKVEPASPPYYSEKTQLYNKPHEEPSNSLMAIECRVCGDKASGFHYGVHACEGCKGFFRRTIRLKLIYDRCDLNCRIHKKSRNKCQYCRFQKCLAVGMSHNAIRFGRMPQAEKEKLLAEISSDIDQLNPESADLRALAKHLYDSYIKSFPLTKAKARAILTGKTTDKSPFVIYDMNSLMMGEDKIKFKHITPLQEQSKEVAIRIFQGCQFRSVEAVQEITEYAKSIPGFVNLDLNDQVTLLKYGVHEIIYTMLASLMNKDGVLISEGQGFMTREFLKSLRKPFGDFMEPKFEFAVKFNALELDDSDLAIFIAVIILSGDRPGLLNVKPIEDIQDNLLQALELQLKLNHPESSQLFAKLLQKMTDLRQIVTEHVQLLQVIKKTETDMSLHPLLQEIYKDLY", "sequence (Q9Y618 whole entry)": "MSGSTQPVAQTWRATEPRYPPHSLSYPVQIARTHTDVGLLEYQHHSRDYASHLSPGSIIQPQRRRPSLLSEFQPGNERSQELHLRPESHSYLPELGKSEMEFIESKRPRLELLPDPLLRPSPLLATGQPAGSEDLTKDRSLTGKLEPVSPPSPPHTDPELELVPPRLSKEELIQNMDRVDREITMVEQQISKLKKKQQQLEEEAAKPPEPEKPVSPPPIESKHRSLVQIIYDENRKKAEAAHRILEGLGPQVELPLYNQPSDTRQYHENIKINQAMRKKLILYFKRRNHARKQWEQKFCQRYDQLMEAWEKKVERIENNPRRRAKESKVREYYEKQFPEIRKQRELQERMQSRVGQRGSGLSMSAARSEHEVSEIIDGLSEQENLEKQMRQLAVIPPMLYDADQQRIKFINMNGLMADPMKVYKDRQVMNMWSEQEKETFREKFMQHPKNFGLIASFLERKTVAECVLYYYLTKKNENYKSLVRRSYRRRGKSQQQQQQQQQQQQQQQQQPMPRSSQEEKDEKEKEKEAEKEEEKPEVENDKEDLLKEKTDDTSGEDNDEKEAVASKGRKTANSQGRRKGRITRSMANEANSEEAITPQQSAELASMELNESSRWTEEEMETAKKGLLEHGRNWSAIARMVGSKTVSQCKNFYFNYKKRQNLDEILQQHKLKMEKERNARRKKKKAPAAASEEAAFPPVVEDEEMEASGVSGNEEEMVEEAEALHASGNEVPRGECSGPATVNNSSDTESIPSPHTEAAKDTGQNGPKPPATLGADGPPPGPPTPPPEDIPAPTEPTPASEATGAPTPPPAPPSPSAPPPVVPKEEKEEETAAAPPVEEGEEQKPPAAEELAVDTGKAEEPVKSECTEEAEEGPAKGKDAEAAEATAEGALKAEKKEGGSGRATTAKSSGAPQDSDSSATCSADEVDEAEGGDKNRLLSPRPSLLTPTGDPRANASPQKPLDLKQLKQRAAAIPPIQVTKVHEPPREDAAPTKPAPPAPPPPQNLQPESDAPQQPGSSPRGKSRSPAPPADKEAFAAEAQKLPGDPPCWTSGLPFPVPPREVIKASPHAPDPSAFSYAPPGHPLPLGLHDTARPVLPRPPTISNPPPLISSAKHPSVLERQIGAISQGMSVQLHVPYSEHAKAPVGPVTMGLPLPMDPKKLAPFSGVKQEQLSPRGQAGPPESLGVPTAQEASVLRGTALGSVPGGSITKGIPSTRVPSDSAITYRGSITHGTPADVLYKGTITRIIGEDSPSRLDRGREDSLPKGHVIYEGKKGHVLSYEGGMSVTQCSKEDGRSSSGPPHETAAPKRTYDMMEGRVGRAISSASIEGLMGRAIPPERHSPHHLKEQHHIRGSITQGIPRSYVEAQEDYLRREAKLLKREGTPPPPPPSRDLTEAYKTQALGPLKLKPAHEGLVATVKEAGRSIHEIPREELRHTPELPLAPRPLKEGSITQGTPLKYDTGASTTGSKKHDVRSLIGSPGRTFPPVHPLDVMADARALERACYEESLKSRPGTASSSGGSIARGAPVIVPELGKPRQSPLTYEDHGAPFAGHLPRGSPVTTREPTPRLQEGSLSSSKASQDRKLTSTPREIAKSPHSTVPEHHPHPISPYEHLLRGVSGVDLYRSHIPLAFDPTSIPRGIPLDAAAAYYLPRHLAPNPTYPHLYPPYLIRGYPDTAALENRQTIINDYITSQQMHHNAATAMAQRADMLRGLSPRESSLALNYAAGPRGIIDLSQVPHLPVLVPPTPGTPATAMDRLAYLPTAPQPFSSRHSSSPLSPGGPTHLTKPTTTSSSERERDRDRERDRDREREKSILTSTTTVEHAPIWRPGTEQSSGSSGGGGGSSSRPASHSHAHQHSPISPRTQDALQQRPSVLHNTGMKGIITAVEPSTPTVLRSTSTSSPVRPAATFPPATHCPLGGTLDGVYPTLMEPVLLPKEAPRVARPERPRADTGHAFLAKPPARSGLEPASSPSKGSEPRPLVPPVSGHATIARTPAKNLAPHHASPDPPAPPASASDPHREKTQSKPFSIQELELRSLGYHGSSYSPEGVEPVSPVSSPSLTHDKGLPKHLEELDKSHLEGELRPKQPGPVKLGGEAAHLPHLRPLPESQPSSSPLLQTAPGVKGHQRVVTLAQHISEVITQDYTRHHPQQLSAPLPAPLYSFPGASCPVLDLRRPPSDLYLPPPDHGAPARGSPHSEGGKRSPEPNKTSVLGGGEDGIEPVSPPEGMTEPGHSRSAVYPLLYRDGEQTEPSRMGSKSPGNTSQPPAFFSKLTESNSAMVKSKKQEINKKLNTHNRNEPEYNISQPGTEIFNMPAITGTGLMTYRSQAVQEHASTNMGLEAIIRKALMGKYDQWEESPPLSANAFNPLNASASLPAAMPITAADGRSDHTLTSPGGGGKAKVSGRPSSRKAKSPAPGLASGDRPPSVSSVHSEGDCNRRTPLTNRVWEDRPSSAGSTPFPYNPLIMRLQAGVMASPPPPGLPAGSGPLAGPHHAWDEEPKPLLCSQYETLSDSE", "assay": "Counterscreen for NR2E3 inverse agonists: TR-FRET-based biochemical high throughput dose response assay to identify inverse agonists of the interaction between peroxisome proliferator-activated receptor gamma (PPARg) and nuclear receptor co-repressor 2 (NCOR2).", "format": "functional"}, "[5]": {"target": "Photoreceptor-specific nuclear receptor (Homo sapiens, UniProt Q9Y5X4)", "sequence (Q9Y5X4 whole entry)": "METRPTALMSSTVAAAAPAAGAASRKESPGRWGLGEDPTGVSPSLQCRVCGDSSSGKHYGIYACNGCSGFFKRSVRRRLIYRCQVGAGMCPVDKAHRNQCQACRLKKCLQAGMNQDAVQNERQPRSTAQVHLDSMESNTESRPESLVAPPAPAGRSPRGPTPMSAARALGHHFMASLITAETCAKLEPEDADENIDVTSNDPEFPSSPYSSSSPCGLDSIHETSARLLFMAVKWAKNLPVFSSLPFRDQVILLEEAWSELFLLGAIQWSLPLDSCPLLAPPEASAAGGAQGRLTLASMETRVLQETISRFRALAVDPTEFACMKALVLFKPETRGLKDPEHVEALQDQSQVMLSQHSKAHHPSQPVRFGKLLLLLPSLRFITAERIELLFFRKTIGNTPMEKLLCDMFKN", "assay": "NR2E3 inverse agonists, dose response, biochemical, TR-FRET (AID 463256)", "format": "functional"}, "[6]": {"assay": "Luminescent dose response cell-based high throughput screening assay for inhibitors of the Janus kinase 2 mutant JAK2V617F. [Related pubchem assays: 1446 (Primary screen.), 1521 (Confirmation assay.), 1486 (Counter screen.)]", "format": "functional"}, "[7]": {"target": "T2, Sphingosine 1-phosphate receptor 4 (Homo sapiens, UniProt O95977)", "T2 sequence (O95977 whole entry)": "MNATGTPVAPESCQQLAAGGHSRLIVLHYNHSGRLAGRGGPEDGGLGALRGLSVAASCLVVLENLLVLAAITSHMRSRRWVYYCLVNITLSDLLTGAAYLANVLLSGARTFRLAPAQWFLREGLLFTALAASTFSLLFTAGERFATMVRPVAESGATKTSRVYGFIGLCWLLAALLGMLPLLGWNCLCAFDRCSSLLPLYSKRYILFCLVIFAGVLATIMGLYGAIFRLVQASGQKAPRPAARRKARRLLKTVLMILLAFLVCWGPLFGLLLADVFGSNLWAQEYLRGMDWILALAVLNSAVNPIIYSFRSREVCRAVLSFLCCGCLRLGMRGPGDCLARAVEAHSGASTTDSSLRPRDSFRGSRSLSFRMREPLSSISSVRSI", "assay": "Late stage fluorescence dose response cell-based screening assay for antagonists of the Sphingosine 1-Phosphate Receptor 4 (S1P4). [Related pubchem assays: 1524 (Confirmation screen (S1P4 antagonists).), 1510 (Primary screen (S1P4 antagonists).), 1853 (Summary AID (S1P4 antagonists).), 1692 (Dose response screen (S1P4 antagonists).)]", "format": "functional"}, "[8]": {"target": "T2, Sphingosine 1-phosphate receptor 4", "assay": "Fluorescence dose response cell-based high throughput screening assay for antagonists of the Sphingosine 1-Phosphate Receptor 4 (S1P4). [Related pubchem assays: 1524 (Confirmation in triplicates.), 1510 (Primary screen.)]", "format": "functional"}, "[9]": {"target": "Sphingosine 1-phosphate receptor 1 (Homo sapiens, UniProt P21453)", "sequence (P21453 whole entry)": "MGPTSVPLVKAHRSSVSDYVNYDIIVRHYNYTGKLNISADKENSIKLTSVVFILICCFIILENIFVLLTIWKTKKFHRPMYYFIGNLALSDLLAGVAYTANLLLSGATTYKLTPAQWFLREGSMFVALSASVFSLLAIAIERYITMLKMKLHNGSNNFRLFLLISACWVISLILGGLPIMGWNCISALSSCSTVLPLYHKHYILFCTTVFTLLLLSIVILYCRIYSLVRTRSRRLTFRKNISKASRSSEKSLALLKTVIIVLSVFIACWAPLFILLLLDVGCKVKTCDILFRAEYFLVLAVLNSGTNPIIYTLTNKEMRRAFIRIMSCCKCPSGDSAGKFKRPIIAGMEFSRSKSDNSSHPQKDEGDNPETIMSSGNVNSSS", "format": "functional"}, "[10]": {"assay": "THP-1 cell cytotoxicity, dose response, cytotoxicity control for non-replicating M. tuberculosis project (AID 489025)", "format": "functional"}, "[11]": {"target": "Heat shock protein HSP 90-alpha (Homo sapiens, UniProt P07900)", "format": "functional, organism-based"}, "[12]": {"target": "T3, High affinity choline transporter 1 (Homo sapiens, UniProt Q9GZV3)", "T3 sequence (Q9GZV3 whole entry)": "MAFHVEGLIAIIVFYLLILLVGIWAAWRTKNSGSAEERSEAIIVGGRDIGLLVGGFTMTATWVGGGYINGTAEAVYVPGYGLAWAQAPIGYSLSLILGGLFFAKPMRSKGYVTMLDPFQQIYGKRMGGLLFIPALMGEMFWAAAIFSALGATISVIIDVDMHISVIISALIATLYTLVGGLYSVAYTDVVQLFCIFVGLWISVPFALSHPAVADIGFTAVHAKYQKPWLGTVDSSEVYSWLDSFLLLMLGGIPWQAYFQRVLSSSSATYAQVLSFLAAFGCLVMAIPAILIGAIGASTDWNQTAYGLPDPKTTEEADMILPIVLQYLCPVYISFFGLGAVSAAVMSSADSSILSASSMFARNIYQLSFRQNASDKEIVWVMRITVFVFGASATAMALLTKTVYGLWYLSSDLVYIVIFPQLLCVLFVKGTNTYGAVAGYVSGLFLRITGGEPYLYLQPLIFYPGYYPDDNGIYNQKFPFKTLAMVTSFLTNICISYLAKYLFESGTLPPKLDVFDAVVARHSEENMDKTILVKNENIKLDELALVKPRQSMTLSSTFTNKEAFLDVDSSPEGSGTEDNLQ", "assay": "CHT inhibitors, dose response, cell-based, 5-point CRC, membrane potential dye (AID 504840)", "format": "functional"}, "INS1": {"system": "INS1", "assay": "beta cell apoptosis inhibitors, cytokine rescue, dose response, luminescence, retest (AID 449756);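 also: cell death triggered by IL-1 beta plus TNF-alpha plus IFN-gamma mixture; protective hits raise ATP signal compared with cytokine alone wells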", "format": "functional, cell-based", "conditions": "Rattus norvegicus"}, "[13]": {"assay": "inhibitors of PGC1a acetylation in cells, dose response, cell-based, cherry-picked samples (AID 720514);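 also: potency may reflect raised or lowered acetylation signal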", "format": "functional"}, "[14]": {"assay": "A549 cell cytotoxicity, dose response, cytotoxicity control, plate reader, cherry-pick, antagonist series (AID 743412)", "format": "functional, cell-based"}, "[15]": {"assay": "HepG2 cell cytotoxicity, dose response, cytotoxicity control, plate reader, cherry-pick, antagonist series (AID 743416)", "format": "functional, cell-based"}, "[16]": {"assay": "LGR2 antagonists, dose response, cell-based, HEK293, CRE-luciferase reporter, cherry pick, set 2 (AID 743343);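 also: transfected cells were stimulated with diluted bursicon conditioned medium after compound addition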", "format": "functional"}, "[17]": {"assay": "MC4R antagonists, dose response, counter-screen for LGR2 antagonist project, cell-based, plate reader, cherry pick (AID 743444);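 also: transfected HEK 293 cells stimulated with alpha-MSH peptide; potency of inhibitors of the alpha-MSH evoked signal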", "format": "functional"}, "[18]": {"assay": "HEK293 cell cytotoxicity, dose response, cytotoxicity control, plate reader, cherry-picked samples (AID 743446)", "format": "functional, cell-based"}, "[19]": {"assay": "Luminescence Cell-Based Dose Response to Identify Activators of 5'UTR Stem-Loop Driven Prion Protein mRNA Translation in H4-C Neuroglioblastoma Cells. [Related pubchem assays: 1829 (Project Summary), 1814 (Primary HTS)]", "format": "functional"}, "[20]": {"assay": "Luminescence Cell-Based Dose Response HTS to Identify Activators of Luciferase Translation or Activity in H4 […] Cells. [Related pubchem assays: 1829 (Project Summary), 1814 (Primary HTS)]", "format": "functional"}, "H4": {"system": "H4", "assay": "Luminescence Cell-Based Dose Response HTS to Identify Activators of 5'UTR Stem-Loop Driven Prion Protein mRNA Translation in H4 Neuroglioblastoma Cells. [Related pubchem assays: 1829 (Project Summary), 1814 (Primary HTS)]", "format": "functional", "conditions": "Homo sapiens"}, "[21]": {"assay": "Luminescence Cell-Based Dose Response to Identify Activators of Luciferase Translation or Activity in H4-C Neuroglioblastoma Cells. [Related pubchem assays: 1829 (Project Summary), 1814 (Primary HTS)]", "format": "functional"}, "[22]": {"assay": "Luminescence Cell-Based Dose Confirmation to Identify Activators of 5'UTR Stem-Loop Driven Alpha-Synuclein mRNA Translation in H4 Neuroglioblastoma Cells. [Related pubchem assays: 1829 (Project Summary), 1814 (Primary HTS)]", "format": "functional"}},
  "note": "Calls of active or inactive are those of the source.",
  "data": [
    {"smiles": "O=C(Oc1ccc2c(c1)O/C(=C\\c1ccncc1)C2=O)c1ccccc1", "values": [
      {"measurement": "IC50", "setting": "[1]", "value": "11.7 µM (not active)"},
      {"measurement": "IC50", "setting": "Bcl-2-like protein 1", "value": "15.5 µM (not active)"},
      {"measurement": "EC50", "setting": "[2]", "value": "> 99 µM (inactive)"},
      {"measurement": "EC50", "setting": "[3]", "value": "48 µM (inactive)"}
    ]},
    {"smiles": "Cc1ccc2[nH]c(CCN(C)C)c(CN3CCOCC3)c2c1", "values": [
      {"measurement": "IC50", "setting": "[4]", "value": "10.7 µM (not active)"},
      {"measurement": "IC50", "setting": "[5]", "value": "6.09 µM (active)"}
    ]},
    {"smiles": "COc1ccc([N+](=O)[O-])c(S(=O)(=O)c2ccc(Cl)cc2)n1", "values": [
      {"measurement": "IC50", "setting": "[6]", "value": "810 nM (active)"},
      {"measurement": "IC50", "setting": "[7]", "value": "1.15 µM (not active)"},
      {"measurement": "IC50", "setting": "[8]", "value": "391 nM (active)"},
      {"measurement": "IC50", "setting": "[9]", "value": "4.73 µM (active)"},
      {"measurement": "CC50", "setting": "[10]", "value": "38.1 µM (active)"},
      {"measurement": "AC50", "setting": "[11]", "value": "753 nM (active)"},
      {"measurement": "IC50", "setting": "[12]", "value": "11 µM (active)"},
      {"measurement": "AC50", "setting": "INS1", "value": "6.17 µM (active)"},
      {"measurement": "AC50", "setting": "[13]", "value": "8.16 µM (active)"},
      {"measurement": "AC50", "setting": "[14]", "value": "7.69 µM (active)"},
      {"measurement": "AC50", "setting": "[15]", "value": "7.08 µM (active)"},
      {"measurement": "AC50", "setting": "[16]", "value": "2.64 µM (active)"},
      {"measurement": "AC50", "setting": "[17]", "value": "3.78 µM (active)"},
      {"measurement": "AC50", "setting": "[18]", "value": "10 µM (active)"}
    ]},
    {"smiles": "Cc1ccc(C(=O)CSc2nsc(C)c2C#N)cc1", "values": [
      {"measurement": "EC50", "setting": "[19]", "value": "646 nM (active)"},
      {"measurement": "EC50", "setting": "[20]", "value": "< 100 nM (inconclusive)"},
      {"measurement": "EC50", "setting": "H4", "value": "> 120 µM (not active)"},
      {"measurement": "EC50", "setting": "[21]", "value": "1.49 µM (active)"},
      {"measurement": "EC50", "setting": "[22]", "value": "976 nM (active)"}
    ]}
  ]
}
